Measured values reported in ChEMBL document CHEMBL1201862, “PubChem BioAssay data set” (2004).
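Where inhibition never reached the appropriate level, the endpoint shown equals the highest concentration tested. Otherwise, values were interpolated linearly from a five-concentration, 48-hour dose response in 96-well plates. Here, GI50 denotes the concentration required for 50% inhibition of growth.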 Active and inactive are the calls of the source. Rule as the data show it: active = GI50 up to about 1.1 µM and inactive = higher.

How the values were obtained:
Assay in all cases: inhibition of tumour cell growth, NCI panel, 48 h
T47D = test system: T47D
HCT-116 = test system: HCT-116
NCI-H460 = test system: NCI-H460
UO-31 = test system: UO-31
HCC 2998 = test system: HCC 2998
U-251 = test system: U-251
HL-60 = test system: HL-60
MCF7 = test system: MCF7
MOLT-4 = test system: MOLT-4
OVCAR-5 = test system: OVCAR-5
OVCAR-8 = test system: OVCAR-8
PC-3 = test system: PC-3
MDA-MB-231 = test system: MDA-MB-231
Hs-578T = test system: Hs-578T
K562 = test system: K562
SN12C = test system: SN12C
SR = test system: SR
DU-145 = test system: DU-145
SK-OV-3 = test system: SK-OV-3

Measured: GI50

CCOP(=O)(OCC)/C(C#N)=C/c1nccn1C
inactive: T47D > 100 µM | HCT-116 > 100 µM | NCI-H460 > 100 µM | UO-31 > 100 µM | HCC 2998 > 100 µM | U-251 > 100 µM | HL-60 > 100 µM | MCF7 > 100 µM | MOLT-4 > 100 µM | OVCAR-5 > 100 µM | OVCAR-8 > 100 µM | PC-3 > 100 µM | MDA-MB-231 > 100 µM | Hs-578T > 100 µM | K562 > 100 µM | SN12C > 100 µM | SR > 100 µM | DU-145 > 100 µM

CC1=C/C(=N\OCC(=O)O)CC(c2ccc(C(C)C)cc2)C1 (stereo not given)
inactive: T47D 65.3 µM | HCT-116 45.6 µM | NCI-H460 42.2 µM | U-251 63.8 µM | SK-OV-3 > 100 µM | HL-60 26.5 µM | MCF7 52.5 µM | MOLT-4 16.3 µM | OVCAR-5 > 100 µM | OVCAR-8 27.9 µM | PC-3 38.5 µM | MDA-MB-231 54.8 µM | Hs-578T > 100 µM | K562 32.3 µM | SN12C 60.1 µM | SR 28.1 µM | DU-145 > 100 µM

CCN(CC)P(=O)(c1ccc2c(c1)OCCOCCOCCOCCO2)N(CC)CC
inactive: T47D > 100 µM | HCT-116 > 100 µM | NCI-H460 > 100 µM | UO-31 > 100 µM | HCC 2998 > 100 µM | SK-OV-3 > 100 µM | HL-60 > 100 µM | MCF7 > 100 µM | MOLT-4 > 100 µM | OVCAR-8 > 100 µM | PC-3 > 100 µM | MDA-MB-231 > 100 µM | Hs-578T > 100 µM | K562 > 100 µM | SN12C > 100 µM | SR > 100 µM | DU-145 > 100 µM

CN(C)Cc1c[nH]c2ncnc(O)c12
inactive: T47D 33.1 µM | HCT-116 22.4 µM | NCI-H460 26.2 µM | UO-31 62.2 µM | U-251 51.6 µM | SK-OV-3 > 100 µM | HL-60 19.7 µM | MCF7 24.7 µM | MOLT-4 7.8 µM | OVCAR-5 > 100 µM | OVCAR-8 29 µM | PC-3 56.2 µM | MDA-MB-231 72.4 µM | Hs-578T > 100 µM | K562 20.7 µM | SN12C 34.2 µM | SR 27.1 µM | DU-145 26.4 µM

COC(=O)C(COC(=O)/C=C/c1ccc(OC(C)=O)c(OC(C)=O)c1)NC(=O)/C=C/c1ccc(OC(C)=O)c(OC(C)=O)c1 (stereo not given)
inactive: T47D 16.6 µM | HCT-116 19.2 µM | NCI-H460 21.3 µM | HCC 2998 19.4 µM | U-251 28.4 µM | SK-OV-3 67 µM | HL-60 25.2 µM | MCF7 28.3 µM | MOLT-4 38.3 µM | OVCAR-5 38.7 µM | OVCAR-8 30.4 µM | PC-3 13.6 µM | MDA-MB-231 14.9 µM | Hs-578T 30.3 µM | K562 > 100 µM | SN12C 19.6 µM | SR 18 µM | DU-145 20.8 µM

Cc1cc(C)c2c(c1)C/C(=C\c1ccccc1C(=O)O)C2=O
inactive: T47D 35.2 µM | HCT-116 76.6 µM | NCI-H460 11.7 µM | UO-31 73.3 µM | HCC 2998 33.5 µM | U-251 7.46 µM | HL-60 > 100 µM | MCF7 78.2 µM | MOLT-4 76.4 µM | OVCAR-5 > 100 µM | OVCAR-8 57 µM | PC-3 > 100 µM | MDA-MB-231 > 100 µM | Hs-578T > 100 µM | K562 > 100 µM | SN12C > 100 µM | SR > 100 µM | DU-145 > 100 µM

CCCCCCCCCCCCCCCCS(=O)(=O)c1ccc(NN)cc1
inactive: T47D > 10 µM | HCT-116 4.76 µM | NCI-H460 > 10 µM | HCC 2998 > 10 µM | U-251 6.19 µM | SK-OV-3 > 10 µM | HL-60 1.5 µM | MCF7 > 10 µM | MOLT-4 6.43 µM | OVCAR-5 > 10 µM | OVCAR-8 6.53 µM | PC-3 2.83 µM | MDA-MB-231 > 10 µM | Hs-578T 7.96 µM | K562 2.71 µM | SN12C > 10 µM | SR 2.77 µM | DU-145 > 10 µM

COc1cc(/C=N\NC(=O)C[N+](C)(C)C)cc(OC)c1OC
inactive: T47D > 10 µM | HCT-116 > 10 µM | HCC 2998 > 10 µM | U-251 > 10 µM | SK-OV-3 > 10 µM | HL-60 > 10 µM | MCF7 > 10 µM | MOLT-4 > 10 µM | OVCAR-5 > 10 µM | OVCAR-8 > 10 µM | PC-3 > 10 µM | MDA-MB-231 > 10 µM | Hs-578T > 10 µM | K562 > 10 µM | SN12C > 10 µM | SR > 10 µM | DU-145 > 10 µM

CCOn1cc(C[C@@]2(O)C(=O)OC3[C@@H](O)CO[C@@]32O)c2ccccc21 (stereo not given in full)
inactive: T47D > 100 µM | HCT-116 > 100 µM | NCI-H460 > 100 µM | UO-31 > 100 µM | U-251 > 100 µM | SK-OV-3 > 100 µM | HL-60 > 100 µM | MCF7 > 100 µM | MOLT-4 > 100 µM | OVCAR-5 > 100 µM | OVCAR-8 > 100 µM | PC-3 > 100 µM | MDA-MB-231 > 100 µM | Hs-578T > 100 µM | K562 > 100 µM | SN12C > 100 µM | SR > 100 µM | DU-145 > 100 µM

C1=N\c2ccc(cc2)/N=C\c2ccc(cc2)OCc2cccc(n2)COc2ccc/1cc2
inactive: T47D > 100 µM | HCT-116 > 100 µM | NCI-H460 > 100 µM | UO-31 > 100 µM | U-251 > 100 µM | SK-OV-3 > 100 µM | HL-60 > 100 µM | MCF7 > 100 µM | MOLT-4 > 100 µM | OVCAR-5 > 100 µM | OVCAR-8 > 100 µM | PC-3 > 100 µM | MDA-MB-231 > 100 µM | Hs-578T > 100 µM | K562 > 100 µM | SN12C > 100 µM | SR > 100 µM | DU-145 > 100 µM

NC(CSC1c2ccccc2-c2ccccc21)C(=O)O (stereo not given)
inactive: T47D > 100 µM | HCT-116 > 100 µM | NCI-H460 > 100 µM | UO-31 > 100 µM | U-251 > 100 µM | SK-OV-3 > 100 µM | HL-60 > 100 µM | MCF7 > 100 µM | MOLT-4 > 100 µM | OVCAR-5 > 100 µM | OVCAR-8 > 100 µM | PC-3 > 100 µM | MDA-MB-231 > 100 µM | Hs-578T 23.9 µM | K562 > 100 µM | SN12C > 100 µM | SR 69.2 µM | DU-145 > 100 µM
